{
  "source": "patent US20230053540A1",
  "about": "“TREATMENT OF LIVER INJURY” (Massachusetts Institute of Technology, priority 2019, published 2023)",
  "tested_on": "hepatocytes",
  "assay": "Seq-Well scRNA-Seq of hepatocytes after APAP overdose (signature scores, DEG vs untreated)",
  "assay_type": "in vivo, mouse",
  "data": [
    {"molecule": "CC(=O)Nc1ccc(O)cc1", "note": "[APAP, acetaminophen]", "values": [
      {"measurement": "avg_logFC Snx3", "setting": "cluster A48 (APAP, 48 h)", "result": 0.2562},
      {"measurement": "avg_logFC Sord", "setting": "cluster A48 (APAP, 48 h)", "result": 0.3763},
      {"measurement": "avg_logFC St3gal5", "setting": "cluster A48 (APAP, 48 h)", "result": 0.3766},
      {"measurement": "avg_logFC Stbd1", "setting": "cluster A48 (APAP, 48 h)", "result": 0.2667},
      {"measurement": "avg_logFC Sult1a1", "setting": "cluster A48 (APAP, 48 h)", "result": 0.3856},
      {"measurement": "avg_logFC Sult1d1", "setting": "cluster A48 (APAP, 48 h)", "result": 0.5282},
      {"measurement": "avg_logFC Syvn1", "setting": "cluster A48 (APAP, 48 h)", "result": 0.2867},
      {"measurement": "avg_logFC Tcea3", "setting": "cluster A48 (APAP, 48 h)", "result": 0.3934},
      {"measurement": "avg_logFC Tef", "setting": "cluster A48 (APAP, 48 h)", "result": 0.3162},
      {"measurement": "avg_logFC Tmbim4", "setting": "cluster A48 (APAP, 48 h)", "result": 0.3931},
      {"measurement": "avg_logFC Tmbim6", "setting": "cluster A48 (APAP, 48 h)", "result": 0.3567},
      {"measurement": "avg_logFC Tmem219", "setting": "cluster A48 (APAP, 48 h)", "result": 0.2647},
      {"measurement": "avg_logFC Ttc36", "setting": "cluster A48 (APAP, 48 h)", "result": 0.6145},
      {"measurement": "avg_logFC Ttpa", "setting": "cluster A48 (APAP, 48 h)", "result": 0.4757},
      {"measurement": "avg_logFC Ttr", "setting": "cluster A48 (APAP, 48 h)", "result": 0.4205},
      {"measurement": "avg_logFC Ugt2b5", "setting": "cluster A48 (APAP, 48 h)", "result": 0.6108},
      {"measurement": "avg_logFC Ugt2b36", "setting": "cluster A48 (APAP, 48 h)", "result": 0.3503},
      {"measurement": "avg_logFC Upb1", "setting": "cluster A48 (APAP, 48 h)", "result": 0.3631},
      {"measurement": "avg_logFC Usmg5", "setting": "cluster A48 (APAP, 48 h)", "result": 0.4173},
      {"measurement": "avg_logFC Vnn3", "setting": "cluster A48 (APAP, 48 h)", "result": 0.3054},
      {"measurement": "avg_logFC Vtn", "setting": "cluster A48 (APAP, 48 h)", "result": 0.3638},
      {"measurement": "avg_logFC Yipf3", "setting": "cluster A48 (APAP, 48 h)", "result": 0.2702},
      {"measurement": "avg_logFC Zfp91", "setting": "cluster A48 (APAP, 48 h)", "result": 0.3221},
      {"measurement": "pct.1, gene Abcc3", "setting": "cluster A96", "result": 0.733},
      {"measurement": "pct.1, gene Acaa1b", "setting": "cluster A96", "result": 0.986},
      {"measurement": "pct.1, gene Acat1", "setting": "cluster A96", "result": 0.917},
      {"measurement": "pct.1, gene Acot1", "setting": "cluster A96", "result": 0.459},
      {"measurement": "pct.1, gene Agpat6", "setting": "cluster A96", "result": 0.743},
      {"measurement": "pct.1, gene Agt", "setting": "cluster A96", "result": 0.912},
      {"measurement": "pct.1, gene Akr1d1", "setting": "cluster A96", "result": 0.721},
      {"measurement": "pct.1, gene Aldh9a1", "setting": "cluster A96", "result": 0.884},
      {"measurement": "pct.1, gene Aplp2", "setting": "cluster A96", "result": 0.826},
      {"measurement": "pct.1, gene Apo17a", "setting": "cluster A96", "result": 0.559},
      {"measurement": "pct.1, gene Apoc2", "setting": "cluster A96", "result": 0.901},
      {"measurement": "pct.1, gene Aqp9", "setting": "cluster A96", "result": 0.801},
      {"measurement": "pct.1, gene Arl4a", "setting": "cluster A96", "result": 0.517},
      {"measurement": "pct.1, gene Asl", "setting": "cluster A96", "result": 0.896},
      {"measurement": "pct.1, gene Baat", "setting": "cluster A96", "result": 0.862},
      {"measurement": "pct.1, gene Bnip3", "setting": "cluster A96", "result": 0.716},
      {"measurement": "pct.1, gene Cd36", "setting": "cluster A96", "result": 0.299},
      {"measurement": "pct.1, gene Ces1e", "setting": "cluster A96", "result": 0.71},
      {"measurement": "pct.1, gene Cox5a", "setting": "cluster A96", "result": 0.813},
      {"measurement": "pct.1, gene Cox6a1", "setting": "cluster A96", "result": 0.943},
      {"measurement": "pct.1, gene Cox8a", "setting": "cluster A96", "result": 0.737},
      {"measurement": "pct.1, gene Cpeb4", "setting": "cluster A96", "result": 0.527},
      {"measurement": "pct.1, gene Cpox", "setting": "cluster A96", "result": 0.634},
      {"measurement": "pct.1, gene Cpt1a", "setting": "cluster A96", "result": 0.837},
      {"measurement": "pct.1, gene Creg1", "setting": "cluster A96", "result": 0.985},
      {"measurement": "pct.1, gene Csad", "setting": "cluster A96", "result": 0.843},
      {"measurement": "pct.1, gene Ctage5", "setting": "cluster A96", "result": 0.837},
      {"measurement": "pct.1, gene Cth", "setting": "cluster A96", "result": 0.944},
      {"measurement": "pct.1, gene Cxcl12", "setting": "cluster A96", "result": 0.635},
      {"measurement": "pct.1, gene D4Wsu53e", "setting": "cluster A96", "result": 0.597},
      {"measurement": "pct.1, gene Decr2", "setting": "cluster A96", "result": 0.813},
      {"measurement": "pct.1, gene Dhdh", "setting": "cluster A96", "result": 0.734},
      {"measurement": "pct.1, gene Etfdh", "setting": "cluster A96", "result": 0.811},
      {"measurement": "pct.1, gene Etnppl", "setting": "cluster A96", "result": 0.677},
      {"measurement": "pct.1, gene F5", "setting": "cluster A96", "result": 0.858},
      {"measurement": "pct.1, gene Fmo1", "setting": "cluster A96", "result": 0.606},
      {"measurement": "pct.1, gene G0s2", "setting": "cluster A96", "result": 0.525},
      {"measurement": "pct.1, gene G6pc", "setting": "cluster A96", "result": 0.86},
      {"measurement": "pct.1, gene Gabarapl1", "setting": "cluster A96", "result": 0.881},
      {"measurement": "pct.1, gene Gadd45b", "setting": "cluster A96", "result": 0.452},
      {"measurement": "pct.1, gene Gas5", "setting": "cluster A96", "result": 0.68},
      {"measurement": "pct.1, gene Gm4952", "setting": "cluster A96", "result": 0.663},
      {"measurement": "pct.1, gene Gsta2", "setting": "cluster A96", "result": 0.522},
      {"measurement": "pct.1, gene Gstt3", "setting": "cluster A96", "result": 0.541},
      {"measurement": "pct.1, gene Gyk", "setting": "cluster A96", "result": 0.616},
      {"measurement": "pct.1, gene Hmgcl", "setting": "cluster A96", "result": 0.871},
      {"measurement": "pct.1, gene Hmgcs1", "setting": "cluster A96", "result": 0.858},
      {"measurement": "pct.1, gene Hpgd", "setting": "cluster A96", "result": 0.588},
      {"measurement": "pct.1, gene Hsd17b7", "setting": "cluster A96", "result": 0.56},
      {"measurement": "pct.1, gene Hsd17b10", "setting": "cluster A96", "result": 0.841},
      {"measurement": "pct.1, gene Igfbp1", "setting": "cluster A96", "result": 0.826},
      {"measurement": "pct.1, gene Kif1b", "setting": "cluster A96", "result": 0.686},
      {"measurement": "pct.1, gene Lcat", "setting": "cluster A96", "result": 0.886},
      {"measurement": "pct.1, gene Mia3", "setting": "cluster A96", "result": 0.81},
      {"measurement": "pct.1, gene Ndufa3", "setting": "cluster A96", "result": 0.737},
      {"measurement": "pct.1, gene Ndufa7", "setting": "cluster A96", "result": 0.818},
      {"measurement": "pct.1, gene Nr1i3", "setting": "cluster A96", "result": 0.625},
      {"measurement": "pct.1, gene Oat", "setting": "cluster A96", "result": 0.653},
      {"measurement": "pct.1, gene Pon1", "setting": "cluster A96", "result": 0.965},
      {"measurement": "pct.1, gene Por", "setting": "cluster A96", "result": 0.858},
      {"measurement": "pct.1, gene Ppp1r3b", "setting": "cluster A96", "result": 0.536},
      {"measurement": "pct.1, gene Ppp2r5a", "setting": "cluster A96", "result": 0.764},
      {"measurement": "pct.1, gene Ptms", "setting": "cluster A96", "result": 0.806},
      {"measurement": "pct.1, gene Pxmp4", "setting": "cluster A96", "result": 0.687},
      {"measurement": "pct.1, gene Rdh16", "setting": "cluster A96", "result": 0.494},
      {"measurement": "pct.1, gene Rdx", "setting": "cluster A96", "result": 0.824},
      {"measurement": "pct.1, gene Rgn", "setting": "cluster A96", "result": 0.899},
      {"measurement": "pct.1, gene Sc4mol", "setting": "cluster A96", "result": 0.781},
      {"measurement": "pct.1, gene Slc4a4", "setting": "cluster A96", "result": 0.609},
      {"measurement": "pct.1, gene Slc25a20", "setting": "cluster A96", "result": 0.671},
      {"measurement": "pct.1, gene Slco1a4", "setting": "cluster A96", "result": 0.507},
      {"measurement": "pct.1, gene Snord118", "setting": "cluster A96", "result": 0.564},
      {"measurement": "pct.1, gene Tgoln1", "setting": "cluster A96", "result": 0.756},
      {"measurement": "pct.1, gene Tmed5", "setting": "cluster A96", "result": 0.714},
      {"measurement": "pct.1, gene Tobi", "setting": "cluster A96", "result": 0.649},
      {"measurement": "pct.1, gene Tsc22d3", "setting": "cluster A96", "result": 0.534},
      {"measurement": "pct.1, gene Zfp36l1", "setting": "cluster A96", "result": 0.601},
      {"measurement": "pct.1, gene Zfp91", "setting": "cluster A96", "result": 0.693}
    ]}
  ]
}
